Reference: US20230106943A1, “ENGINEERED ANTIMICROBIAL PEPTIDES AND USAGE THEREOF” (Peptilogics, Inc., priority 2021, published 2023)
Values joined by “and” are separate entries in the source; they are usually repeats but may differ in a detail not shown here. Equal values may be shown once. Read-outs that look alike come from different tables or passages of the source. No end group written: not given here.

Columns and labels:
[1] = Stability of solid SEQ ID NO: 1 stored at −20° C. (HPLC area percent); assay type: physicochemical
Method: A solid form of SEQ ID NO: 1 from Batch 2K18005 was dissolved and assayed. FIG. 1 depict the chromatograph of SEQ ID NO:1 at 1.0 mg/mL. The retention time at 14.38 and relative retention time at 1.00 (RTT) corresponded to SEQ ID NO: 1. The area percent of the SEQ ID NO: 1 was 99.09. […] The area percent of the impurity was 0.91. FIG. 1 depicts SEQ ID NO: 1 at time (t)=0 for a baseline prior to storage. SEQ ID NO: 1 is stable after 3 years of storage at −20° C. as a dry powder in a glass vial. FIG. 2 depicts the HPLC chromatograph after 3 years of storage SEQ ID NO: 1 in solid form at −20° C. (Batch 2K18005). The retention time at 18.03 and relative retention time at 1.00 (RTT) corresponded to SEQ ID NO: 1. The area percent of the SEQ ID NO: 1 was 97.87.

[2] = Stability of 5 mg/mL SEQ ID NO: 1 solution pH 5.0 stored at 40° C. or −20° C. (content, pH, HPLC area %); assay type: physicochemical; details: for level of impurity at RRT 0.98: 5 mg/mL solution pH 5.0
Method: Enhanced stability was shown of the peptide formulation after 54 days of storage at 40° C. as a liquid solution with a concentration of 5 mg/mL of SEQ ID NO: 1 at pH of 5.0. FIG. 4 depict the overlaid chromatograph of SEQ ID NO: 1 after 7 days at 40° C. (bottom graph) and after 54 days at 40° C. (top graph).

[3] = Example 4 stability of concentrated solutions: UV-Vis Assay (method 78933); assay type: physicochemical
Method: The peptide formulation of SEQ ID NO: 1 dissolved in a saline solution with a pH of 5.0±0.1 was tested for stability under either −20° C. or 40° C. with 75% relative humidity (RH). […]

[4] = Example 6 solubility near saturation of SEQ ID NO: 1 in water at pH 5.0, 7.4, 8.1 (HPLC); assay type: physicochemical; details: for Purity of near saturation solution: water
Method: SEQ ID NO: 1 was dissolved to near saturation of different pH values.
396.69 mg of SEQ ID NO:1 was weighed out and dissolved in approximately 3 mL of HPLC-grade water resulting in a clear and colorless solution. The pH was 4.80 and the concentration approximately 132 mg/mL. The pH was adjusted with 0.08 M NaOH to pH=4.99. 1.1 mL was pulled, transferred to a serum vial, frozen and lyophilized. The remaining solution was adjusted to pH=7.40 with 0.08 M and 1 M NaOH. 1.45 mL was pulled, transferred to a serum vial, frozen and lyophilized. The remaining solution was adjusted to pH=8.00 with 0.08 M NaOH. This remaining solution (˜1.9 mL) was transferred to a serum vial, frozen and lyophilized. After lyophilization 200 μL HPLC-grade water was added to the solids in the serum vials and a colorless slurry was obtained. An additional 200 μL HPLC-grade water was added to obtain clear and colorless solutions. At pH=5.0 the solids went into solution without foaming; solids at pH=7.4 and pH=8 took longer to dissolve. These solutions (0.4 mL) were transferred to conical Eppendorf tubes. The vials were washed with 0.2 mL of HPLC grade water and the washes were combined with the respective solutions at the three different pH conditions. The samples were frozen and lyophilized. To the lyo cakes 50 μL increments of HPLC grade water was added. Transition from suspension or slurry to viscous solution was hard to capture. After adding 150 μL to 350 μL of HPLC grade water and intermittent mixing and storage at ambient temperature viscous and clear solutions were obtained which turned to gels when stored refrigerated at 2-8° C. All viscous solutions were centrifuged for 10 min at 12 krpm. No visible pellets were detected after centrifugation. Supernatants of the samples were analyzed for peptide concentration and purity by HPLC analysis.

[5] = solid form, Batch 2K18005, t=0 baseline prior to storage
[6] = solid form, after 3 years at −20° C.

## RRWVRRVRRVWRRVVRVVRRWVRR-NH2 [SEQ ID NO: 1]
[1]; dry powder in a glass vial, 3 years at −20° C.
  stability on storage: stable
[1]; solid form, Batch 2K18005, after 3 years of storage at −20° C.
  area percent of the SEQ ID NO: 1 (HPLC): 97.87 area percent
[1]; [5]
  area percent of the SEQ ID NO: 1 (HPLC): 99.09 area percent
  area percent of the impurity, RTT 1.03: 0.91 area percent
[1]; [6]
  area percentage of impurity, RTT 0.99: 0.09 area percent
  area percentage of impurity, RTT 1.02: 1.28 area percent
  area percentage of impurity, RTT 1.03: 0.41 area percent
  area percentage of impurity, RTT 1.04: 0.19 area percent
  area percentage of impurity, RTT 1.05: 0.15 area percent
[2]; 7 days at 40° C.
  level of impurity at RRT 0.98: 0.4%
[2]; 54 days at 40° C.
  level of impurity at RRT 0.98: 1.1%
[2]; 7 days/40° C.
  Main peak SEQ ID NO: 1 area %: 97.2% and 97.1%
  SEQ ID NO: 1 content: 5.05 mg/mL and 5.11 mg/mL
  Solution pH: 4.98 and 5.02
[2]; 7 days/−20° C.
  Main peak SEQ ID NO: 1 area %: 97.2%
  SEQ ID NO: 1 content: 5.11 mg/mL
[2]; 14 days/40° C.
  Main peak SEQ ID NO: 1 area %: 96.2% and 94.7%
  SEQ ID NO: 1 content: 5.05 mg/mL and 5.01 mg/mL
  Solution pH: 5.01 and 5.00
[2]; 14 days/−20° C.
  SEQ ID NO: 1 content: 5.08 mg/mL
  Solution pH: 4.97
[2]; 54 days/40° C.
  Main peak SEQ ID NO: 1 area %: 95.6%
  SEQ ID NO: 1 content: 4.99 mg/mL
  Solution pH: 4.96
[2]; 54 days/−20° C.
  Main peak SEQ ID NO: 1 area %: 96.9%
[2]; standard run with the 7 days samples
  Area % of concurrent analytical standard: 97.1 ± 0.4%
[2]; standard run with the 14 days samples
  Area % of concurrent analytical standard: 95.5 ± 0.5%
[2]; standard run with the 54 days samples
  Area % of concurrent analytical standard: 96.8 ± 0.8%
[3]; 15.3 mg/mL solution, 40° C. and 75% RH, 1 Month
  UV-Vis Assay: 102.0%
[3]; 15.3 mg/mL solution, 40° C. and 75% RH, 2 Month
  UV-Vis Assay: 102.2%
[3]; 15.3 mg/mL solution, 40° C. and 75% RH, 3 Month
  UV-Vis Assay: 103.9%
[3]; 15.3 mg/mL solution, 40° C. and 75% RH, 6 Month
  UV-Vis Assay: 102.5%
[3]; 15.3 mg/mL solution, −20° C., 0 Month
  UV-Vis Assay: 102.0%
[3]; 15.3 mg/mL solution, −20° C., 1 Month
  UV-Vis Assay: 101.5%
[3]; 15.3 mg/mL solution, −20° C., 2 Month
  UV-Vis Assay: 104.0%
[3]; 15.3 mg/mL solution, −20° C., 3 Month
  UV-Vis Assay: 105.1%
[3]; 15.3 mg/mL solution, −20° C., 6 Month
  UV-Vis Assay: 103.9%
[3]; 15.3 mg/mL solution, −20° C., 9 Month
  UV-Vis Assay: 103.1%
[3]; 36.7 mg/mL solution, 40° C. and 75% RH, 1 Month
  UV-Vis Assay: 100.3%
[3]; 36.7 mg/mL solution, 40° C. and 75% RH, 2 Month
  UV-Vis Assay: 101.3%
[3]; 36.7 mg/mL solution, 40° C. and 75% RH, 3 Month
  UV-Vis Assay: 99.2%
[3]; 36.7 mg/mL solution, 40° C. and 75% RH, 6 Month
  UV-Vis Assay: 100.1%
[3]; 36.7 mg/mL solution, −20° C., 0 Month
  UV-Vis Assay: 98.1%
[3]; 36.7 mg/mL solution, −20° C., 1 Month
  UV-Vis Assay: 100.0%
[3]; 36.7 mg/mL solution, −20° C., 2 Month
  UV-Vis Assay: 100.6%
[3]; 36.7 mg/mL solution, −20° C., 3 Month
  UV-Vis Assay: 101.7%
[3]; 36.7 mg/mL solution, −20° C., 6 Month
  UV-Vis Assay: 99.5%
[3]; 36.7 mg/mL solution, −20° C., 9 Month
  UV-Vis Assay: 100.3%
[3]; 72.4 mg/mL solution, 40° C. and 75% RH, 1 Month
  UV-Vis Assay: 97.8%
[3]; 72.4 mg/mL solution, 40° C. and 75% RH, 2 Month
  UV-Vis Assay: 98.6%
[3]; 72.4 mg/mL solution, 40° C. and 75% RH, 3 Month
  UV-Vis Assay: 93.4%
[3]; 72.4 mg/mL solution, 40° C. and 75% RH, 6 Month
  UV-Vis Assay: 95.4%
[3]; 72.4 mg/mL solution, −20° C., 0 Month
  UV-Vis Assay: 90.1%
[3]; 72.4 mg/mL solution, −20° C., 1 Month
  UV-Vis Assay: 97.6%
[3]; 72.4 mg/mL solution, −20° C., 2 Month
  UV-Vis Assay: 98.2%
[3]; 72.4 mg/mL solution, −20° C., 3 Month
  UV-Vis Assay: 94.5%
[3]; 72.4 mg/mL solution, −20° C., 6 Month
  UV-Vis Assay: 97.0%
[3]; 72.4 mg/mL solution, −20° C., 9 Month
  UV-Vis Assay: 99.0%
[3]; 81.4 mg/mL solution, −20° C., 0 Month
  UV-Vis Assay: 105.0 % LC
[4]; pH 5, water, pH 5.0, read-out: Solubility of near saturation, Concentration
  solubility: ≥ 328 mg/mL
[4]; pH 7.4, water, pH 7.4, read-out: Solubility of near saturation, Concentration
  solubility: ≥ 228 mg/mL
[4]; pH 8.1, water, pH 8.1, read-out: Solubility of near saturation, Concentration
  solubility: ≥ 250 mg/mL
[4]; pH=5.0, read-out: solubility near saturation concentration in water
  solubility: 328 mg/mL
[4]; pH=7.4, read-out: solubility near saturation concentration in water
  solubility: 228 mg/mL
[4]; pH=8.1, read-out: solubility near saturation concentration in water
  solubility: 250 mg/mL
[4]; pH 5.0
  Purity of near saturation solution: 95.6%
[4]; pH 7.4
  Purity of near saturation solution: 97.2%
[4]; pH 8.1
  Purity of near saturation solution: 96.7%
other
  pKa: ~12.5
